Consider one compound from BindingDB's records for doi:10.1021/cb100011u (Academia Sinica, 2010).

Test [1] addresses T1, Beta-hexosaminidase subunit beta (Homo sapiens, UniProt P07686).
T1 sequence (P07686 whole entry): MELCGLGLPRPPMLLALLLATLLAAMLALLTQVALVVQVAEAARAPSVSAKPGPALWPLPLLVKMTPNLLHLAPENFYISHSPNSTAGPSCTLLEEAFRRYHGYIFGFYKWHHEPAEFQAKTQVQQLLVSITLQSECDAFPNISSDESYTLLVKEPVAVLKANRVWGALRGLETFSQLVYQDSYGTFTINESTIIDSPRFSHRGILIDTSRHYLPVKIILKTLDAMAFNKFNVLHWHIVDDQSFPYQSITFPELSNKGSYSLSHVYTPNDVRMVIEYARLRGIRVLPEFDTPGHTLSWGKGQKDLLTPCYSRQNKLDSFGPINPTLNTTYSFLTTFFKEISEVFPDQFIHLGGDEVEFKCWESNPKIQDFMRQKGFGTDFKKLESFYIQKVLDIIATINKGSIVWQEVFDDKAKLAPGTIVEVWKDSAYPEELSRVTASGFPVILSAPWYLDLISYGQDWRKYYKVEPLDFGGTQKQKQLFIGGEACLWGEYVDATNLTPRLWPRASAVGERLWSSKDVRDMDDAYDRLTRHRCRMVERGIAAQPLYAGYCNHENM
Briefly: Enzyme Inhibition Assay. To be noted: pH 4.25; 30 °C. From the text: (§1) Enzyme inhibition activity assay using 4-methylumbelliferyl N-acetylglucosamine (MUG) as substrate.

Another test addresses T2, Protein O-GlcNAcase (Homo sapiens, UniProt O60502).
T2 sequence (O60502 whole entry): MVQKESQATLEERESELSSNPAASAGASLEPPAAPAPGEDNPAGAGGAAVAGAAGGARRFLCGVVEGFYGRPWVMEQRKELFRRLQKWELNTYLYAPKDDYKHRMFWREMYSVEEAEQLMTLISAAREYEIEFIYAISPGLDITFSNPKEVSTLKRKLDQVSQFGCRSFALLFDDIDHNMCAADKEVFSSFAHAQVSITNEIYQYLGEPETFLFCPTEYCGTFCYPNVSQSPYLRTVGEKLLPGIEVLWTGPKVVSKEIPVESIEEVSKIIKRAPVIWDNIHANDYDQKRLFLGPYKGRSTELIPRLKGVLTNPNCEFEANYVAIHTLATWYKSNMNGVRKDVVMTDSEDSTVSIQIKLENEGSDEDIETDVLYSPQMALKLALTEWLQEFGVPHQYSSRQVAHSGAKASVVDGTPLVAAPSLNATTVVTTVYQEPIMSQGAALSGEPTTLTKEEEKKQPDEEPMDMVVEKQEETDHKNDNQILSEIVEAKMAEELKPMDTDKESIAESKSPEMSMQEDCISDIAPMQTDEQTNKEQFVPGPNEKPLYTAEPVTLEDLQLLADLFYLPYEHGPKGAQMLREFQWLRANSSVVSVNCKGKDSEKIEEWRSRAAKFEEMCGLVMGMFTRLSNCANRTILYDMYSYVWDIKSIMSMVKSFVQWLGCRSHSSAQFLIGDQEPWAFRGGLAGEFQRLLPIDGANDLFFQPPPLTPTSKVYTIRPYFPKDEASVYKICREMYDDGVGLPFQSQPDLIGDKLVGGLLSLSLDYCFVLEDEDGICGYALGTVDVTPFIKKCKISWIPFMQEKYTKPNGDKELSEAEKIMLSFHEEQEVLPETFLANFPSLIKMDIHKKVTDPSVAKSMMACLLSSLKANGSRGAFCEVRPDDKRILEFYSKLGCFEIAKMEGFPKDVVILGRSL
Description: Enzyme Inhibition Assay. To be noted: pH 4.25; 30 °C.
Text: as §1

One may read the Ki as the dissociation constant of the complex between target and ligand, obtained from inhibition or displacement. Low values mean a stronger hold on the target, high ones a looser hold on the target. For `CC(=O)N[C@H]1CN[C@H](CO)[C@@H](O)[C@@H]1O`, the results for the inhibition constant (Ki) (in test [1]; on Protein O-GlcNAcase) were 0.54 µM and 23.6 µM, respectively.
